Data published in paper PMC7140002, “Attenuation of Pseudomonas aeruginosa Quorum Sensing by Natural Products: Virtual Screening, Evaluation and Biomolecular Interactions” (International Journal of Molecular Sciences, 2020).

Columns and labels:
[1] = target: T1, LasR (Pseudomonas aeruginosa, UniProt P25084); test: microscale thermophoresis; assay type: binding
T1 construct: LasR-LBD

[2] = target: T1, LasR; test: microscale thermophoresis (no fluorescence signal in thermal shift assay); assay type: binding

T1 sequence (P25084 1-173): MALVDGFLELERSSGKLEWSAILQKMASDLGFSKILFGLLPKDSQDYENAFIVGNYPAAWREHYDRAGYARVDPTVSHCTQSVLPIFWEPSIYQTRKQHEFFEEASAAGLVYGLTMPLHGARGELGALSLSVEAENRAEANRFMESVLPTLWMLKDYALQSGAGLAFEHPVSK

| SMILES | Kd [1] | Kd [2] |
| --- | --- | --- |
| O=C1C=C(Br)/C(=C/Br)O1 [C30, (Z-)-4-Bromo-5-(bromomethylene)-2(5H)-furanone] | 20.4 ± 16 µM | – |
| O=C(/C=C/c1ccc(O)c(O)c1)c1ccc(O)cc1O [B, Butein] | – | 3.48 ± 1.63 µM |
